The values below come from patent US10266526B2, “Substituted 1,2,3-triazoles as SMYD inhibitors for treating cancer” (EPIZYME, INC., priority 2014, dated 2019).

SMILES strings stand for the structures. Bounds are passed on as bounds.

The target of this assay is SMYD3 (Homo sapiens (Human), UniProt Q9H7B4). The experiment in a line: SMYD3 biochemical assay (SMYD3 enzyme assay on MEKK2 protein substrate, 3H-SAM scintillation proximity assay). Particulars: read-out: SMYD3 Biochem IC50 (μM)*. The procedure, abridged: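 Native full-length human SMYD3, expressed in E. coli, was preincubated with compound for 30 min at room temperature in 25 mM Tris-Cl pH 8.0, 1 mM TCEP, 0.005% BSG and 0.005% Tween 20. ³H-SAM plus GST-MEKK2 then started the reaction. It was stopped with unlabeled SAM (100 uM final), and methylated MEKK2 was read by SPA.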
A general note: SPA uses beads or plates that emit light when radiolabelled molecules are held near them.

Sequence of SMYD3 (Q9H7B4 whole entry): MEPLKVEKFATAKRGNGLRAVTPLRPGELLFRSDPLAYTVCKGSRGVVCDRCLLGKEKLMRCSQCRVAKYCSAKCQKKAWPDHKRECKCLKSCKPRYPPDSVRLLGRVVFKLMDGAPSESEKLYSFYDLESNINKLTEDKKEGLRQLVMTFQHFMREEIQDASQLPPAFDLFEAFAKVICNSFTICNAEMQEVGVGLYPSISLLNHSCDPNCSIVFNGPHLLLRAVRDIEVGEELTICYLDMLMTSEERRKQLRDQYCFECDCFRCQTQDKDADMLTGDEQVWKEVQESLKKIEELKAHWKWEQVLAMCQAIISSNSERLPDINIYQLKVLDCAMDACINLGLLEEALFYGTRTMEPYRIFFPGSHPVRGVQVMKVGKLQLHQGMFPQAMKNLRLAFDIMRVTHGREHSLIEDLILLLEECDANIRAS

Usually IC50 stands for the point on the concentration scale where inhibition reaches its midpoint. On to `N[C@H]1CC[C@H](NC(=O)c2ccc3c(c2)NC(=O)CC3)CC1` [compound 91, N-((1r,4r)-4-aminocyclohexyl)-2-oxo-1,2,3,4-tetrahydroquinoline-7-carboxamide], for which the IC50 stood at 89.5 µM. Then `CC(NC(=O)c1ccc2c(c1)NC(=O)CC2)C1CCN(C(=O)[C@H](C)N)CC1` (stereo partly drawn) [compound 92, N-(1-(1-(L-alanyl)piperidin-4-yl)ethyl)-2-oxo-1,2,3,4-tetrahydroquinoline-7-carboxamide], with 50 µM.

With `CC(NC(=O)c1ccc2oc(=O)ccc2c1)C1CCN(C(=O)[C@H](C)N)CC1` (stereo partly drawn) [compound 95, N-(1-(1-(L-alanyl)piperidin-4-yl)ethyl)-2-oxo-2H-chromene-6-carboxamide], the IC50 came to 150 µM. Regarding `CC(NC(=O)c1ccc2c(c1)CCC(=O)N2)C1CCN(C(=O)[C@H](C)N)CC1` (stereo partly drawn) [compound 96, N-(1-(1-(L-alanyl)piperidin-4-yl)ethyl)-2-oxo-1,2,3,4-tetrahydroquinoline-6-carboxamide], the IC50 is 193 µM. The value for `CC(NC(=O)c1ccc2cc(N)ccc2c1)C1CCN(C(=O)[C@H](C)N)CC1` (stereo partly drawn) [compound 97, N-(1-(1-(L-alanyl)piperidin-4-yl)ethyl)-6-amino-2-naphthamide] was 146 µM; that for `COc1cc(C(=O)NC(C)C2CCN(C(=O)[C@H](C)N)CC2)cc2c1OCC(=O)N2` (stereo partly drawn) [compound 98, N-(1-(1-(L-alanyl)piperidin-4-yl)ethyl)-8-methoxy-3-oxo-3,4-dihydro-2H-benzo[b][1,4]oxazine-6-carboxamide] was 151 µM. As for `CC(NC(=O)c1ccc2ncc(O)nc2c1)C1CCN(C(=O)[C@H](C)N)CC1` (stereo partly drawn) [compound 99, N-(1-(1-(L-alanyl)piperidin-4-yl)ethyl)-3-hydroxyquinoxaline-6-carboxamide], the concentration for half-maximal inhibition (IC50) was 35.7 µM. As for `O=C1Cc2cc(C(=O)NC[C@H]3CCNC3)ccc2N1` [compound 101, (S)-2-oxo-N-(pyrrolidin-3-ylmethyl)indoline-5-carboxamide], the IC50 was 25.4 µM. On to `N[C@@H](Cc1ccc(O)cc1)C(=O)N1CCC(CNC(=O)c2ccc3c(c2)CC(=O)N3)CC1` [compound 102, N-((1-(L-tyrosyl)piperidin-4-yl)methyl)-2-oxoindoline-5-carboxamide], for which the IC50 stood at 1.86 µM. As for `N[C@@H](Cc1c[nH]c2ccccc12)C(=O)N1CCC(CNC(=O)c2ccc3c(c2)CC(=O)N3)CC1` [compound 103, N-((1-(L-tryptophyl)piperidin-4-yl)methyl)-2-oxoindoline-5-carboxamide], the IC50 was 2.74 µM. Then `CCOC(=O)C(NC(=O)c1ccc2c(c1)CC(=O)N2)C1CCN(C(=O)[C@H](C)N)CC1` (stereo partly drawn) [compound 104, ethyl 2-(1-(L-alanyl)piperidin-4-yl)-2-(2-oxoindoline-5-carboxamido)acetate], with 1.51 µM; and `O=C1Cc2cc(C(=O)NCC3(O)CCNCC3)ccc2N1` [compound 105, N-((4-hydroxypiperidin-4-yl)methyl)-2-oxoindoline-5-carboxamide], with 40.4 µM; and `NCCCCNC(=O)c1ccc2c(c1)CC(=O)N2` [compound 106, N-(4-aminobutyl)-2-oxoindoline-5-carboxamide], with 13.4 µM. The value for `C[C@H](N)C(=O)NCCCCNC(=O)c1ccc2c(c1)CC(=O)N2` [compound 107, (S)-N-(4-(2-aminopropanamido)butyl)-2-oxoindoline-5-carboxamide] was 14 µM; that for `CCOC(=O)CCCC(=O)N[C@H]1CC[C@H](N)CC1` [compound 108, ethyl 5-(((1r,4r)-4-aminocyclohexyl)amino)-5-oxopentanoate] was 92.2 µM.

Turning to `CC(CN1CCCC1)C(=O)NC(c1ccccc1)C1CCNCC1` (stereo not drawn) [compound 109, 2-methyl-N-(phenyl(piperidin-4-yl)methyl)-3-(pyrrolidin-1-yl)propanamide], the IC50 was found to be 79 µM. Consider `Cc1cc2[nH]c(C(=O)NC(c3ccccc3)C3CCNCC3)cc2o1` (stereo not drawn) [compound 110, 2-methyl-N-(phenyl(piperidin-4-yl)methyl)-4H-furo[3,2-b]pyrrole-5-carboxamide], for which the IC50 is 82.8 µM.

In the case of `CCC1(C(=O)N[C@H]2CC[C@H](N)CC2)CCCN1` (stereo partly drawn) [compound 111, N-((1r,4r)-4-aminocyclohexyl)-2-ethylpyrrolidine-2-carboxamide], the IC50 stood at 150 µM. The value for `C[C@H](N)C(=O)N1CCC(O)(CNC(=O)c2ccc3c(c2)CC(=O)N3)CC1` [compound 112, N-((1-(L-alanyl)-4-hydroxypiperidin-4-yl)methyl)-2-oxoindoline-5-carboxamide] was 3.04 µM; that for `C[C@H](N)C(=O)N1CCC(F)(CNC(=O)c2ccc3c(c2)CC(=O)N3)CC1` [compound 113, N-((1-(L-alanyl)-4-fluoropiperidin-4-yl)methyl)-2-oxoindoline-5-carboxamide] was 3.86 µM. The value for `C[C@@H](N)C(=O)NCCCCNC(=O)c1ccc2c(c1)CC(=O)N2` [compound 114, (R)-N-(4-(2-aminopropanamido)butyl)-2-oxoindoline-5-carboxamide] was 22.3 µM; that for `N[C@H]1CC[C@H](NC(=O)c2cccc3c2OCC(=O)N3)CC1` [compound 115, N-((1r,4r)-4-aminocyclohexyl)-3-oxo-3,4-dihydro-2H-benzo[b][1,4]oxazine-8-carboxamide] was 61.2 µM; that for `N[C@H]1CC[C@H](NC(=O)c2cncc(Br)c2)CC1` [compound 116, N-((1r,4r)-4-aminocyclohexyl)-5-bromonicotinamide] was 51 µM. With `N[C@H]1CC[C@H](NC(=O)c2cncc(Cl)c2)CC1` [compound 117, N-((1r,4r)-4-aminocyclohexyl)-5-chloronicotinamide], the IC50 was determined as 87 µM. Turning to `N[C@H]1CC[C@H](NC(=O)c2ccc3ncsc3c2)CC1` [compound 118, N-((1r,4r)-4-aminocyclohexyl)benzo[d]thiazole-6-carboxamide], the IC50 is 139 µM. As for `N[C@H]1CC[C@H](NC(=O)c2ccc3ccc(O)nc3c2)CC1` [compound 119, N-((1r,4r)-4-aminocyclohexyl)-2-hydroxyquinoline-7-carboxamide], the IC50 came to 116 µM. Consider `CC(NC(=O)c1ccc2ccc(O)nc2c1)C1CCN(C(=O)[C@H](C)N)CC1` (stereo partly drawn) [compound 120, N-(1-(1-(L-alanyl)piperidin-4-yl)ethyl)-2-hydroxyquinoline-7-carboxamide], for which the IC50 was 86.9 µM. Then `CC1(CNC(=O)c2ccc3c(c2)CC(=O)N3)CCNCC1` [compound 121, N-((4-methylpiperidin-4-yl)methyl)-2-oxoindoline-5-carboxamide], with 65.7 µM; and `CCOC(=O)C(NC(=O)c1ccc2c(c1)CC(=O)N2)C1CCNCC1` (stereo not drawn) [compound 122, ethyl 2-(2-oxoindoline-5-carboxamido)-2-(piperidin-4-yl)acetate], with 42.3 µM. Then `Nc1ccc(C(=O)N[C@H]2CC[C@H](N)CC2)cn1` [compound 123, 6-amino-N-((1r,4r)-4-aminocyclohexyl)nicotinamide], with 108 µM; and `N[C@H]1CC[C@H](NC(=O)c2cc(-n3cnnc3)ccc2Cl)CC1` [compound 126, N-((1r,4r)-4-aminocyclohexyl)-2-chloro-5-(4H-1,2,4-triazol-4-yl)benzamide], with 32 µM; and `N[C@H]1CC[C@H](NC(=O)c2nnc[nH]2)CC1` [compound 127, N-((1r,4r)-4-aminocyclohexyl)-4H-1,2,4-triazole-3-carboxamide], with 16.4 µM.

Take `N[C@H]1CC[C@H](NC(=O)Cc2cccnc2)CC1` [compound 129, N-((1r,4r)-4-aminocyclohexyl)-2-(pyridin-3-yl)acetamide]: the half-maximal inhibitory concentration (IC50) is greater than 100 µM. `NCCC(=O)NC1CCC(NC(=O)c2ccc3c(c2)CC(=O)N3)CC1` (stereo not drawn) [compound 130, N-(4-(3-aminopropanamido)cyclohexyl)-2-oxoindoline-5-carboxamide]: the IC50 was found to be 0.29 µM. Regarding `CCOC(=O)C1(CNC(=O)c2ccc3c(c2)CC(=O)N3)CCNCC1` [compound 131, ethyl 4-((2-oxoindoline-5-carboxamido)methyl)piperidine-4-carboxylate], the IC50 turned out to be 56.3 µM.

Regarding `CCOC(=O)C1(CNC(=O)c2ccc3c(c2)CC(=O)N3)CCN(C(=O)[C@H](C)N)CC1` [compound 132, ethyl 1-(L-alanyl)-4-((2-oxoindoline-5-carboxamido)methyl)piperidine-4-carboxylate], the IC50 is 0.94 µM. In the case of `C[C@@H](N)C(=O)N1CC[C@@H](CNC(=O)c2ccc3c(c2)CC(=O)N3)C1` [compound 133, N-(((S)-1-(D-alanyl)pyrrolidin-3-yl)methyl)-2-oxoindoline-5-carboxamide], the IC50 came out at 10.7 µM.

As to `C[C@H](N)C(=O)N1CC[C@@H](CNC(=O)c2ccc3c(c2)CC(=O)N3)C1` [compound 134, N-(((S)-1-(L-alanyl)pyrrolidin-3-yl)methyl)-2-oxoindoline-5-carboxamide], the IC50 amounted to 10.2 µM.

For the compound `C[C@H](N)C(=O)N1CC[C@H](CNC(=O)c2ccc3c(c2)CC(=O)N3)C1` [compound 135, N-(((R)-1-(L-alanyl)pyrrolidin-3-yl)methyl)-2-oxoindoline-5-carboxamide], the IC50 is 13.6 µM. In the case of `Cc1nc(-c2ccc(C(=O)N[C@H]3CC[C@H](NC(=O)CCN)CC3)cc2)no1` [compound 136, N-((1r,4r)-4-(3-aminopropanamido)cyclohexyl)-4-(5-methyl-1,2,4-oxadiazol-3-yl)benzamide], the IC50 was greater than 100 µM. Then `Cc1nc(-c2ccc(C(=O)N[C@H]3CC[C@H](N)CC3)cc2)no1` [compound 137, N-((1r,4r)-4-aminocyclohexyl)-4-(5-methyl-1,2,4-oxadiazol-3-yl)benzamide], with 46.6 µM; and `CC(NC(=O)c1ccncc1)C1CCN(C(=O)[C@H](C)N)CC1` (stereo partly drawn) [compound 138, N-(1-(1-(L-alanyl)piperidin-4-yl)ethyl)isonicotinamide], with greater than 100 µM.
